Data taken from ChEMBL document CHEMBL5291721, “A preclinical secondary pharmacology resource illuminates target-adverse drug reaction associations of marketed drugs” (Nat Commun, 2023).

Experiments:
[1] = target: Gamma-aminobutyric acid receptor subunit alpha-1 (Rattus norvegicus, UniProt P62813)
[2] = target: T1, Muscarinic acetylcholine receptor M1 (Homo sapiens, UniProt P11229); assay type: functional, cell-based
T1 sequence (P11229 whole entry): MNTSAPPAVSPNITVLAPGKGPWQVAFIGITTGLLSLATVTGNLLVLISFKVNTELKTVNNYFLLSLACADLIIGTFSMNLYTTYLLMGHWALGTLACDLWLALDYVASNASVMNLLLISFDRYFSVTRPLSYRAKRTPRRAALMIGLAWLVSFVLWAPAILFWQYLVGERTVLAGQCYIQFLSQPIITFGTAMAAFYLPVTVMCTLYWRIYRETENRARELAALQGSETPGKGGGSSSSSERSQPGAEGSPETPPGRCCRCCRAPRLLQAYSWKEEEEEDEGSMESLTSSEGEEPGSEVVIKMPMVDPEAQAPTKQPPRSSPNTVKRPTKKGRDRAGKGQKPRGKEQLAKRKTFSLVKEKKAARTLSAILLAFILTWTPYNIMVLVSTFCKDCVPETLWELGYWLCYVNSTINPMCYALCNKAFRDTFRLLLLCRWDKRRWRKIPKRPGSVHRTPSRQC

[3] = target: T1, Muscarinic acetylcholine receptor M1; assay type: functional, cell-based; remark: listed apart in the source
[4] = target: T2, Adenosine receptor A1 (Homo sapiens, UniProt P30542)
T2 sequence (P30542 whole entry): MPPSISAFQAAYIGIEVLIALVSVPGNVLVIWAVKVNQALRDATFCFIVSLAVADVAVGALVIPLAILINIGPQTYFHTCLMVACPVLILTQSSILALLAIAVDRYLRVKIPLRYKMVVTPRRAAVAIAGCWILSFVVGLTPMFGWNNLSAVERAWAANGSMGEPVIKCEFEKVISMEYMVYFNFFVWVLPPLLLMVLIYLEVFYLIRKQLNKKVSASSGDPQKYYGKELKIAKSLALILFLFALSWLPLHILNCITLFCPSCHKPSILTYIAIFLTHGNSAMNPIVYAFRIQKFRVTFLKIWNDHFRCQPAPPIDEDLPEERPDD

[5] = target: Neuronal acetylcholine receptor subunit alpha-4 (Homo sapiens, UniProt P43681)
[6] = target: T3, Alpha-2A adrenergic receptor (Homo sapiens, UniProt P08913); assay type: functional, cell-based
T3 sequence (P08913 whole entry): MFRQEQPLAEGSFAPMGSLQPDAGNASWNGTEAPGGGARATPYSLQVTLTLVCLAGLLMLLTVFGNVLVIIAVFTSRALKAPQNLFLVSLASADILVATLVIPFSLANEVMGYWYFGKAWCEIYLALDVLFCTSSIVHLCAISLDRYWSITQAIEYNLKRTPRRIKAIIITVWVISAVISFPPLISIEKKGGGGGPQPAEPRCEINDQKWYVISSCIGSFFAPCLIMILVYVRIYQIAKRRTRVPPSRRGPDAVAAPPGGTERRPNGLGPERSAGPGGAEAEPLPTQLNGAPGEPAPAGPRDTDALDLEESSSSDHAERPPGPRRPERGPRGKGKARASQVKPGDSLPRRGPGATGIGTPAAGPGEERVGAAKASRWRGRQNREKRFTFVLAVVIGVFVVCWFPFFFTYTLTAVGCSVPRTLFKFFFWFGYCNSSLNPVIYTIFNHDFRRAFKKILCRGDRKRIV

[7] = target: T3, Alpha-2A adrenergic receptor; assay type: functional, cell-based; remark: listed apart in the source
[8] = target: T4, Amine oxidase [flavin-containing] A (Homo sapiens, UniProt P21397); assay type: functional
T4 sequence (P21397 whole entry): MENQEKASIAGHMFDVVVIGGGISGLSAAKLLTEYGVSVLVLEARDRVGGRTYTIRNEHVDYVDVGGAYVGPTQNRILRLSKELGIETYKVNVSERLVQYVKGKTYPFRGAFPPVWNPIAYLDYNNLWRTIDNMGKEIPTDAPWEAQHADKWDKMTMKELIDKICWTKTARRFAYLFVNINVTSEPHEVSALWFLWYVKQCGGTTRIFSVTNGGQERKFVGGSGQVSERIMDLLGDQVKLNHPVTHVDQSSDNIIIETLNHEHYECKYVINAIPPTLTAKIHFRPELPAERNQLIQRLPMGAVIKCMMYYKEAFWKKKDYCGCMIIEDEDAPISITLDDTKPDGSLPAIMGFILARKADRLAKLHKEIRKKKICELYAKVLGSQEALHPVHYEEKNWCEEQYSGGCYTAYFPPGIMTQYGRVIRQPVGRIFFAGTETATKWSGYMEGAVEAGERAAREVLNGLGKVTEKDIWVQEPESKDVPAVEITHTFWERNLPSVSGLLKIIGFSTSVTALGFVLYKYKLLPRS

[9] = target: D(1A) dopamine receptor (Homo sapiens, UniProt P21728); assay type: functional, cell-based
[10] = target: T5, Adenosine receptor A3 (Homo sapiens, UniProt P0DMS8)
T5 sequence (P0DMS8 whole entry): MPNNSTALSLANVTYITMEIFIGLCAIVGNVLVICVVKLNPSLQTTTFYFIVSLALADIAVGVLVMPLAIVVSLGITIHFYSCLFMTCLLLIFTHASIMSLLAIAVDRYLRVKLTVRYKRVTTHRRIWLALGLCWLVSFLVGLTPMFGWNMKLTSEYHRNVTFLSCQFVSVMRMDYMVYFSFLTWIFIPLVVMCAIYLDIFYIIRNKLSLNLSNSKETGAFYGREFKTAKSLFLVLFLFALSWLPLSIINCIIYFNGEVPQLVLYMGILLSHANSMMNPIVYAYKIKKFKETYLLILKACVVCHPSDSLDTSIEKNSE

[11] = target: Vascular endothelial growth factor receptor 2 (Homo sapiens, UniProt P35968); assay type: functional
Further: assay procedure not described here.

Gamma-aminobutyric acid receptor subunit alpha-1, sequence (P62813 whole entry): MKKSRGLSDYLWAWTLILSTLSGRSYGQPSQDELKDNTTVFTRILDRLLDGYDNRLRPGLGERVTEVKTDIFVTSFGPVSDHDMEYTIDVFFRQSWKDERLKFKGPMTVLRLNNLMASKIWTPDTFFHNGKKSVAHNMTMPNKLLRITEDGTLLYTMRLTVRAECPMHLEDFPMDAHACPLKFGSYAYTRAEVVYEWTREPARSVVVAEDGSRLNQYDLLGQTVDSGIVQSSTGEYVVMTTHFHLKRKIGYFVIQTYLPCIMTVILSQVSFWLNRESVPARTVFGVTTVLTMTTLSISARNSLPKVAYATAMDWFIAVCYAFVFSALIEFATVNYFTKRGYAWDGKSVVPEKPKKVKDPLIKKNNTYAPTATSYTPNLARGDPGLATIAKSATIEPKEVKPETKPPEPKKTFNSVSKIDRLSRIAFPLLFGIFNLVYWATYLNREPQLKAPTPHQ
Vascular endothelial growth factor receptor 2, sequence (P35968 whole entry): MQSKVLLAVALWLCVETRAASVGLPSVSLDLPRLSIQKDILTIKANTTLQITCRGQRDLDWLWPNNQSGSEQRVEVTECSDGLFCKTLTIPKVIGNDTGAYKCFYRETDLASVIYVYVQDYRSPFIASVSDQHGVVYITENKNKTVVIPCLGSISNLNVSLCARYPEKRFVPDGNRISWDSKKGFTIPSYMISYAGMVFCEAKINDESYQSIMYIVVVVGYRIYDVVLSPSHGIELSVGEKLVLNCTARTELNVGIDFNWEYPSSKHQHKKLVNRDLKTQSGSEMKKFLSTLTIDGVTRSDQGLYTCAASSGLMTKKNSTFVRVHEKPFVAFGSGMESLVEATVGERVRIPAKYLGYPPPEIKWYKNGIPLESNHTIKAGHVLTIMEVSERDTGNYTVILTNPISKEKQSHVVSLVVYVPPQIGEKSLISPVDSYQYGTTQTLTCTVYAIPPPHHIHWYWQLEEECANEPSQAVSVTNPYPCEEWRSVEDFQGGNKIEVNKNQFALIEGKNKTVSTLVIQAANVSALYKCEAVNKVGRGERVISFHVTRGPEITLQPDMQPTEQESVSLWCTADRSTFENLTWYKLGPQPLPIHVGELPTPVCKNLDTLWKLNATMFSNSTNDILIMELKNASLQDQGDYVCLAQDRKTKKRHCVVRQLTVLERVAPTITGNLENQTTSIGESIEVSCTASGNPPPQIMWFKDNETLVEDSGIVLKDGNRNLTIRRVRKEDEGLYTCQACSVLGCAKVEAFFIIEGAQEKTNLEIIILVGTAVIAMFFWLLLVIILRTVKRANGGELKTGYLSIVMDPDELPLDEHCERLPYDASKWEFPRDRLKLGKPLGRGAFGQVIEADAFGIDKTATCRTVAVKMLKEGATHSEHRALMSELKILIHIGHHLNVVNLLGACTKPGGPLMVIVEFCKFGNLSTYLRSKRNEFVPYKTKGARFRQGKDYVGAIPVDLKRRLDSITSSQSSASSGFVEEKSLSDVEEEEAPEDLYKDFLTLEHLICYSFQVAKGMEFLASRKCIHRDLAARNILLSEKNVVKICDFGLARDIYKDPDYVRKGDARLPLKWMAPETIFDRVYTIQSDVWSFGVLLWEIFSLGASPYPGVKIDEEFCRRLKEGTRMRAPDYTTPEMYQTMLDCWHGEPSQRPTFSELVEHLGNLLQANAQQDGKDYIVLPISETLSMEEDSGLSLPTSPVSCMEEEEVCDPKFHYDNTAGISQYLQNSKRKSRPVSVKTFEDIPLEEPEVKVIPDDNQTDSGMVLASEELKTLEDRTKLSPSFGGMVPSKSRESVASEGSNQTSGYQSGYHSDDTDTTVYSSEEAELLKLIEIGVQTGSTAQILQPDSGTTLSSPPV
Neuronal acetylcholine receptor subunit alpha-4, sequence (P43681 whole entry): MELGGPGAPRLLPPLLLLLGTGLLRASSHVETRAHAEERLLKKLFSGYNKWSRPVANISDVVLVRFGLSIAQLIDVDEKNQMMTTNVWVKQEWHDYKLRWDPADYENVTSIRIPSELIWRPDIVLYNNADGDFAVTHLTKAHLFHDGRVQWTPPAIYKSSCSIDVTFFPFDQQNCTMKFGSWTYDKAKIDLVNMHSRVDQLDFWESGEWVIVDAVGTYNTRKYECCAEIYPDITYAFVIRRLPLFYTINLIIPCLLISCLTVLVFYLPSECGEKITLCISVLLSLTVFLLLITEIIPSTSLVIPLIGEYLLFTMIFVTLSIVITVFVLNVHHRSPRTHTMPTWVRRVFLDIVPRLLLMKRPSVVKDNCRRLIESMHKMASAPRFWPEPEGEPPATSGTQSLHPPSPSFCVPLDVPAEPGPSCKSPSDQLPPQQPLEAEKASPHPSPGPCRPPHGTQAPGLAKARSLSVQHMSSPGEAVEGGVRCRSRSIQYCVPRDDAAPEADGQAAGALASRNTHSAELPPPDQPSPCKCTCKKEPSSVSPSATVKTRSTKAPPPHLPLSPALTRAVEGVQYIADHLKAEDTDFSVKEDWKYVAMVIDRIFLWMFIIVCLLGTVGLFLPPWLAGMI
D(1A) dopamine receptor, sequence (P21728 whole entry): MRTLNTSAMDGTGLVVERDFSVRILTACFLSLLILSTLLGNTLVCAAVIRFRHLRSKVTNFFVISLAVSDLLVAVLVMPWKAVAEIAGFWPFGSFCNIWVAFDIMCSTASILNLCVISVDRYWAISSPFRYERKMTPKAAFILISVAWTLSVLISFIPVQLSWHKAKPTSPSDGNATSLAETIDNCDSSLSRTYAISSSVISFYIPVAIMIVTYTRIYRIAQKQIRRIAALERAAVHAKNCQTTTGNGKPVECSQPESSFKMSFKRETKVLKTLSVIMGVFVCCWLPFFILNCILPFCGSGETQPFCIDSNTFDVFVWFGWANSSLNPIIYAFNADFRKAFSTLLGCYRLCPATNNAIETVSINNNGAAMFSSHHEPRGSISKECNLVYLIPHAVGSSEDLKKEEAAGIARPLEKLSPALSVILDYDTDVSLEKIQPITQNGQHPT

| SMILES | AC50 [1] [µM] | AC50 [2] [µM] | AC50 [3] [µM] | AC50 [4] [µM] | AC50 [5] [µM] | AC50 [6] [µM] | AC50 [7] [µM] | AC50 [8] [µM] | AC50 [9] [µM] | AC50 [10] [µM] | AC50 [11] [µM] |
| --- | --- | --- | --- | --- | --- | --- | --- | --- | --- | --- | --- |
| CCCCCCCC(=O)N[C@H](CN1CCCC1)[C@H](O)c1ccc2c(c1)OCCO2 | > 30 |  |  |  |  |  |  |  |  |  |  |
| C[C@]1(COc2ccc(N3CCC(Oc4ccc(OC(F)(F)F)cc4)CC3)cc2)Cn2cc([N+](=O)[O-])nc2O1 | > 30 | > 30 | > 30 | > 30 | > 10 |  |  |  |  |  |  |
| CC(=O)OCC[N+](C)(C)C [ACETYLCHOLINE] | > 30 |  |  | > 30 |  | > 10 | > 10 | > 10 | > 10 |  |  |
| O=C(Nc1nc(-c2cc(Cl)cs2)c(N2CCN(C3CCCCC3)CC2)s1)c1cnc(N2CCC(C(=O)O)CC2)c(Cl)c1 [AVATROMBOPAG] | > 30 |  |  | > 10 | > 10 |  |  |  |  |  |  |
| C[C@@H](O)[C@H]1C(=O)N2C(C(=O)[O-])=C(SC3Cn4cnc[n+]4C3)[C@H](C)[C@H]12 (some centres not stated) [BIAPENEM] | > 30 | > 30 | > 30 |  |  |  |  |  |  |  |  |
| CO[C@@]1(NC(=O)CSCC#N)C(=O)N2C(C(=O)O)=C(CSc3nnnn3C)CS[C@@H]21 [CEFMETAZOLE] | > 30 |  |  |  |  | > 30 | > 30 | > 30 | > 30 |  |  |
| CO/N=C(\C(=O)N[C@@H]1C(=O)N2C(C(=O)[O-])=C(C[n+]3cccc4c3CCC4)CS[C@H]12)c1csc(N)n1 [CEFPIROME] | > 30 | > 30 | > 30 |  |  | > 30 | > 30 | > 30 | > 30 |  |  |
| CC[C@H]1OC(=O)[C@H](C)[C@@H](O[C@H]2C[C@@](C)(OC)[C@@H](O)[C@H](C)O2)[C@H](C)[C@@H](O[C@@H]2O[C@H](C)C[C@H](N(C)C)[C@H]2O)[C@](C)(OC)C[C@@H](C)C(=O)[C@H](C)[C@@H](O)[C@]1(C)O [CLARITHROMYCIN] | > 30 |  |  | > 30 | > 30 | > 30 | > 30 | > 30 | > 30 | > 30 |  |
| Oc1c(I)cc(Cl)c2cccnc12 [CLIOQUINOL] | > 30 |  |  |  |  | > 30 | > 30 | > 30 | > 30 |  |  |
| O=C(CCCN1CC=C(n2c(=O)[nH]c3ccccc32)CC1)c1ccc(F)cc1 [DROPERIDOL] | > 30 |  |  |  |  |  |  |  |  | > 30 | > 30 |
| CCn1cc(C(=O)O)c(=O)c2cc(F)c(N3CCNCC3)nc21 [ENOXACIN] | > 30 |  |  | > 30 | > 10 | > 10 | > 10 | > 10 | > 10 | > 30 | > 30 |
| CC(N)CCCC(C)(C)O (configuration not stated) [HEPTAMINOL] |  | > 30 | > 30 |  |  |  |  |  |  | > 30 | > 30 |
| CCC(=O)O[C@]1(C(=O)COC(C)=O)CC[C@H]2[C@@H]3CCC4=CC(=O)CC[C@]4(C)[C@H]3[C@@H](O)C[C@@]21C [HYDROCORTISONE ACEPONATE] |  | 19.3 | > 30 |  |  |  |  |  |  | > 30 | > 30 |
| O=[N+]([O-])O[C@H]1CO[C@H]2[C@@H]1OC[C@H]2O[N+](=O)[O-] [ISOSORBIDE DINITRATE] |  | > 30 | > 30 |  |  |  |  |  |  | > 30 | > 30 |
| Cc1cc(CCN2CCN(c3cccc(Cl)c3)CC2)n[nH]1 [MEPIPRAZOLE] |  | 26.3 | > 30 |  |  |  |  |  |  | > 30 | > 30 |
| CC[N+](C)(CC)CCOC(=O)C1c2ccccc2Oc2ccccc21 [METHANTHELINE] |  | 0.0287 | > 30 |  |  |  |  |  |  | > 30 | > 30 |
| CCC(=O)O[C@@H]1CC(=O)O[C@H](C)C/C=C/C=C/[C@H](OC(C)=O)[C@H](C)C[C@H](CC=O)[C@H](O[C@@H]2O[C@H](C)[C@@H](O[C@H]3C[C@@](C)(OC(C)=O)[C@@H](OC(=O)CC)[C@H](C)O3)[C@H](N(C)C)[C@H]2O)[C@H]1OC [MIOCAMYCIN] | > 30 |  |  |  |  |  |  |  |  |  |  |
| CCOC(=O)[C@H](CCc1ccccc1)N[C@@H](C)C(=O)N1Cc2cc(OC)c(OC)cc2C[C@H]1C(=O)O [MOEXIPRIL] |  | > 30 | > 30 |  |  |  |  |  |  | > 30 | > 30 |
| CC(c1ccc(Cl)c(Cl)c1)N1N=C(N)CC1=O (configuration not stated) [MUZOLIMINE] |  | > 30 | > 30 |  |  |  |  |  |  | > 30 | > 30 |
| CCN(CC)CCOC(=O)C(Cc1cccc2ccccc12)CC1CCCO1 (configuration not stated) [NAFRONYL] |  | 24.2 | > 30 |  |  |  |  |  |  | > 30 | > 30 |
| N[C@@H](Cc1c[nH]c2ccc(O)cc12)C(=O)O [OXITRIPTAN] |  | > 30 | > 30 |  |  |  |  |  |  | 0.765 | > 30 |
| c1cc(CN2CCCNCCNCCCNCC2)ccc1CN1CCCNCCNCCCNCC1 [PLERIXAFOR] |  | > 30 | > 30 |  |  |  |  |  |  | > 30 | > 30 |
| COCCCOc1ccnc(C[S+]([O-])c2nc3ccccc3[nH]2)c1C (configuration not stated) [RABEPRAZOLE] | > 30 |  |  | 22.5 | > 10 | > 10 | > 10 | > 10 | > 10 |  |  |
| CCCC(=O)O[C@H]1[C@H](C)O[C@@H](O[C@H]2[C@H](N(C)C)[C@@H](O)[C@H](O[C@H]3[C@@H](CC=O)C[C@@H](C)[C@@H](O)/C=C/C=C/C[C@@H](C)OC(=O)C[C@@H](O)[C@@H]3OC)O[C@@H]2C)C[C@@]1(C)OC(=O)CC [ROKITAMYCIN] |  | > 30 | > 30 |  |  |  |  |  |  | > 30 | > 30 |
| O=C(Oc1ccccc1C(=O)O)c1ccccc1O [SALSALATE] | > 30 |  |  |  |  |  |  |  |  | > 30 | > 30 |
| COc1cc([C@@H]2c3cc4c(cc3[C@@H](O[C@@H]3O[C@@H]5CO[C@@H](c6cccs6)O[C@H]5[C@H](O)[C@H]3O)[C@H]3COC(=O)[C@H]23)OCO4)cc(OC)c1O [TENIPOSIDE] |  | > 30 | > 30 |  |  |  |  |  |  | > 30 | > 30 |
| C[C@@H]1C[C@H]2[C@@H]3CCC4=CC(=O)C=C[C@]4(C)C3=CC[C@]2(C)[C@H]1C(=O)CN1CCN(c2cc(N3CCCC3)nc(N3CCCC3)n2)CC1 [TIRILAZAD] | > 30 |  |  |  |  |  |  |  |  | 4.07 | > 30 |
